The record followed here is patent publication US20250170267A1, “ANTIBODY-DRUG CONJUGATE PRECURSOR AND INTERMEDIATE FOR SYNTHESIS THEREOF” (UBE Corporation, priority 2022, published 2025).

The structures appear in SMILES notation. pIC50: −log10 of the molar value. Numbered stars: 1 amine (or outer) side, 2 acyl side, 3 side chain; on linkers, the order of the positions; unused ones are H or OH. Square brackets hold non-standard residues; d marks the D form. Peptide text beside a SMILES is read from it. * marks the point of attachment. βAla(2S-maleimido) = O=C1C=CC(=O)N1[C@@H](CN[*:1])C(=O)[*:2]; Dolaproine = CO[C@@H]([C@@H]1CCCN1)[C@@H](C)C(=O)O; Dil = CC[C@H](C)[C@H](NC)[C@@H](CC(=O)O)OC; Propanoyl(3-PO3H2) = O=C(CCP(=O)(O)O)*; PABC = O=C(OCc1ccc(N[*:1])cc1)[*:2]; X1 = C[C@@H](N*)[C@@H](O)c1ccccc1; hSer(lactone) = O=C1OCC[C@@H]1N*; Cit = NC(=O)NCCC[C@H](N)C(=O)O; PEG4 = NCCOCCOCCOCCOCCC(=O)O; NMeV = CN[C@H](C(=O)O)C(C)C

One data set concerns the target T1, human topoisomerase I (Homo sapiens, UniProt P11387).
T1 construct: purchased Sigma T9069
T1 sequence (P11387 1-765): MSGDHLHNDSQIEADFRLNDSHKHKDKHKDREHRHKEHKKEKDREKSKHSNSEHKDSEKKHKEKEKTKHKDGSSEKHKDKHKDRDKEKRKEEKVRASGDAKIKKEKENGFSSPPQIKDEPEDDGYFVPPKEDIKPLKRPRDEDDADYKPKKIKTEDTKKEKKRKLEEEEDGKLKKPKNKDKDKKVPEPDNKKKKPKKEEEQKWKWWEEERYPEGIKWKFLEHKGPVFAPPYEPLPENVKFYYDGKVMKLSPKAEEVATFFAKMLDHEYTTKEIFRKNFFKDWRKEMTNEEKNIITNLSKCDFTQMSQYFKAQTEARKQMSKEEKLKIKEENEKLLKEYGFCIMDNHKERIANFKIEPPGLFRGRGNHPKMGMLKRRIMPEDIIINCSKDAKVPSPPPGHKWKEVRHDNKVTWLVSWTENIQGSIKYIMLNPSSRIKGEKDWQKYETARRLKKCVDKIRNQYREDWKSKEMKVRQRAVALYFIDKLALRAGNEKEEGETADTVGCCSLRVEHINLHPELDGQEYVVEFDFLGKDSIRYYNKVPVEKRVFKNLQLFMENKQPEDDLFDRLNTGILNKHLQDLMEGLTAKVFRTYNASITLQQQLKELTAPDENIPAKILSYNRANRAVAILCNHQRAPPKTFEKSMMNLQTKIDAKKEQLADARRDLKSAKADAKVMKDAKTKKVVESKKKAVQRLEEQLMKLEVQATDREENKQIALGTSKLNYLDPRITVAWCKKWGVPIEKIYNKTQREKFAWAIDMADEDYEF
Kind of data set: Topoisomerase I activity inhibition test. It is filed as biochemical. Particulars: supercoiled plasmid DNA, 37° C., 60 minutes. On the procedure:
For measuring topoisomerase I activity inhibitory actions, Human DNA Topoisomerase I Assay Kit (manufactured by ProFoldin, HRA100K) was used. A human topoisomerase I (manufactured by Sigma, T9069) was added to a Tris-HCl buffer containing KCl, DTT, MgCl2, EDTA, and BSA to prepare a reaction solution. The reaction solution (35.2 μL) and a test compound solution (4.4 μL) prepared by an aqueous solution containing 10% DMSO were mixed in a 1.5 mL microtube, and the resulting mixture was reacted at 37° C. for 10 minutes. Subsequently, a supercoiled plasmid DNA (4.4 μL) was added thereto, and the resulting mixture was reacted at 37° C. for 60 minutes. After the reaction, the solution was added to a 96 well plate (manufactured by Corning Inc., 3904) at 40 μL/well, and a Dye H19 solution (250 μL) diluted 10 times with the buffer included with the kit was added thereto. A microplate reader (Infinite F500, manufactured by TECAN) was used to measure the fluorescence intensity (excitation wavelength: 485 nm, detection wavelength: 535 nm) of each well.
The topoisomerase I activity inhibition rate (%) was calculated by the following equation.

In another data set the test system is human liver lysosome. In words: Metabolism test using human liver lysosomal fraction. It is filed as in vitro ADME. Particulars: 37° C., 24 hours, released drug, LC-MS/MS. On the procedure:
To a reaction composition solution (X10 Catabolic Buffer (manufactured by SEKISUI-Xenotech, LLC., K5200))(60 μL) in which human liver lysosome (manufactured by SEKISUI-Xenotech, LLC., Cat No. H610.L 2.5 mg/mL)(corresponding to 0.125 mg of protein) was suspended and distilled water (manufactured by FUJIFILM Wako Pure Chemical Corporation, for HPLC)(10 μL) was added 1.2 μM test compound (antibody-drug conjugate produced in ADC Production examples)(25 μL) dissolved in PBS to prepare a reaction solution. After the reaction solution was incubated at 37° C. for 24 hours, “an antitumor drug molecule or an analog thereof, or a derivative thereof” released from the antibody-drug conjugate into the reaction solution was quantified by LC-MS/MS (high performance liquid chromatography/mass spectrometer system) under the following conditions. LC-MS/MS analysis conditions
(§1) LC: LC20 or LC30 HPLC system manufactured by Shimadzu Corporation
(§2) Column: Phenomenex Kinetex C18 (50×2.1 mm, 2.6 μm)
(§3) Column temperature: 40° C.
(§4) Mobile phase A: 0.1% aqueous solution of formic acid, Mobile phase B: 0.1% solution of formic acid in a mixture of 50% acetonitrile/methanol
(§5) Mode: Positive or Negative
(§6) The release rate (%) of drug was calculated by the following equation.

Another data set deals with T2, human liver Cathepsin B (Homo sapiens, UniProt P07858).
T2 construct: human liver Cathepsin B (manufactured by Sigma-Aldrich Co. LLC, Cat No. C8571 25 μg/vial); purchased Sigma-Aldrich Co. LLC C8571; host or cells: human liver
Kind of data set: Metabolism test using human liver Cathepsin B. It is filed as in vitro ADME. Conditions: 37° C., 24 hours, released drug, LC-MS/MS. On the procedure: To human liver Cathepsin B (manufactured by Sigma-Aldrich Co. LLC, Cat No. C8571 25 μg/vial)(corresponding to 400 Unit/mL)(5 μL), X10 Catabolic Buffer (manufactured by SEKISUI-Xenotech, LLC., K5200)(10 μL), 2.5 mM Bovine Serum Albumin (manufactured by FUJIFILM Wako Pure Chemical Corporation, Cat No. 012-15093)(5 μL), and distilled water (manufactured by FUJIFILM Wako Pure Chemical Corporation, for HPLC)(55 μL) was added 1.2 μM test compound (antibody-drug conjugate prepared in ADC Production examples)(25 μL) dissolved in PBS to prepare a reaction solution. After the reaction solution was incubated at 37° C. for 24 hours, “an antitumor drug molecule or an analog thereof, or a derivative thereof” released from the antibody-drug conjugate into the reaction solution was quantified by LC-MS/MS (high performance liquid chromatography/mass spectrometer system) under the following conditions. LC-MS/MS analysis conditions
as §1, §2, §3, §4, §5, §6

Data set [1] is described as follows: Retention time in HPLC (index of hydrophilicity). It is filed as physicochemical. Conditions: Table 5 (MMAE-type precursors); BEH C18, 0.1% formic acid/acetonitrile gradient, 40° C. On the procedure:
As an index of hydrophilicity of the Examples, the retention time (RT) in HPLC analysis was measured, and compared.
Device: LCMS2020 system Shimadzu Corporation
Column: Acquity UPLC (registered trademark) BEH C18 (2.1×50 mm, 1.7 μm)_Waters
Eluent: Solution A: 0.1% aqueous solution of formic acid, Solution B: 0.1% solution of formic acid in acetonitrile

Regarding `CC[C@@]1(O)C(=O)OCc2c1cc1n(c2=O)Cc2c-1nc1cc(F)c(C)c3c1c2[C@@H](NC(=O)CNC)CC3` [Example U-003], the pIC50 (in general, the IC50 on a negative log10 scale, so that one unit is a factor of ten) at human topoisomerase I is at least 4.82.

Regarding `CC[C@H](C)[C@@H]([C@@H](CC(=O)N1CCC[C@H]1[C@H](OC)[C@@H](C)C(=O)N[C@H](C)[C@@H](O)c1ccccc1)OC)N(C)C(=O)[C@@H](NC(=O)[C@H](C(C)C)N(C)C(=O)OCc1ccc(NC(=O)[C@H](CCCNC(N)=O)NC(=O)[C@@H](NC(=O)[C@H](CC(=O)N[C@H]2CCOC2=O)NC(=O)CCOCCOCCOCCOCCNC(=O)[C@H](CNC(=O)CCP(=O)(O)O)N2C(=O)C=CC2=O)C(C)C)cc1)C(C)C` [Example 8] ({Propanoyl(3-PO3H2)}-[βAla(2S-maleimido)][PEG4]D(hSer(lactone))V[Cit][PABC][NMeV]V[Dil][Dolaproine]-X1), the “Release rate (%) of drug from ADC” value in the data set on human liver lysosome turned out to be 60%; in the data set with human liver Cathepsin B it was 41%. Besides, in data set [1], the “Retention time in HPLC measurement” value is 1.03 min.

As for `CC[C@@]1(O)C(=O)OCc2c1cc1n(c2=O)Cc2c-1nc1cc(F)c(C)c3c1c2[C@@H](NC(=O)Cc1cccc(N)c1)CC3` [Example U-006], the pIC50 at human topoisomerase I is at least 4.82.

With `CC[C@@]1(O)C(=O)OCc2c1cc1n(c2=O)Cc2c-1nc1cc(F)c(C)c3c1c2[C@@H](NC(=O)c1cccc(N)c1)CC3` [Example U-004], the pIC50 at human topoisomerase I is at least 4.82.

Regarding `CC[C@H](C)[C@@H]([C@@H](CC(=O)N1CCC[C@H]1[C@H](OC)[C@@H](C)C(=O)N[C@H](C)[C@@H](OP(=O)(O)OCc1ccc(NC(=O)[C@H](CCCNC(N)=O)NC(=O)[C@@H](NC(=O)[C@H](CC(=O)N[C@H]2CCOC2=O)NC(=O)CCOCCOCCOCCOCCNC(=O)[C@H](CNC(=O)CCP(=O)(O)O)N2C(=O)C=CC2=O)C(C)C)cc1)c1ccccc1)OC)N(C)C(=O)[C@@H](NC(=O)[C@H](C(C)C)N(C)C)C(C)C` [Example 3], in data set [1], the “Retention time in HPLC measurement” value turned out to be 0.70 min.

On human topoisomerase I, `CC[C@@]1(O)C(=O)OCc2c1cc1n(c2=O)Cc2c-1nc1cc(F)c(C)c3c1c2[C@@H](NC(=O)c1ccc(N)cc1)CC3` [Example U-005] showed a pIC50 of at least 4.82.

With `CC[C@@]1(O)C(=O)OCc2c1cc1n(c2=O)Cc2c-1nc1cc(F)c(C)c3c1c2[C@@H](NC(=O)CCO)CC3` [Example U-002], the pIC50 at human topoisomerase I was at least 4.82.
